Measured values taken from patent US20240409573A1, “CALICHEAMICIN DERIVATIVES AND ANTIBODY DRUG CONJUGATES THEREOF” (priority 2017, published 2024).

Legend:
Assay type in all cases: cell-based
[1] = system: TF-1 cells, CD33-target expressing; assay: In vitro cell assay, cell viability by MTS, TF-1; details: Homo sapiens, TF-1, 96 h, read-out: Average IC50, TF-1
Experimental: (§1) Her2-Target expressing (BT474 (breast cancer), N87 (gastric cancer), MDA-MB-361-DYT2 (breast cancer)) or Her2-non-expressing (MDA-MB-468, HT29) cells, or 0033-target expressing HL60, HEL92.1.7, NB4, TF-1 or 0033-non-expressing (Raji) cells were seeded in 96-well cell culture plates for 24 hours before treatment. Cells were treated with 3-fold serially diluted antibody-drug conjugates or free compounds (i.e., no antibody conjugated to the drug) in duplicate at 10 concentrations. Cell viability was determined by CellTiter 96® AQueous One Solution Cell Proliferation MTS Assay (Promega, Madison WI) 96 hours after treatment. Relative cell viability was determined as percentage of untreated control. IC50 values were calculated using a four parameter logistic model #203 with XLfit v4.2 (IDBS, Guildford, Surry, UK). Results are shown below in Table 3 (for payloads), Table 4 (for Herceptin conjugates), and Table 5 (for CD33 conjugates).

[2] = system: N87 (gastric cancer) cells, Her2-target expressing; assay: In vitro cell assay, cell viability by MTS, N87; details: 96 h, read-out: Average IC50, N87
Experimental: as §1

[3] = system: MDA-MB-361-DYT2 (breast cancer) cells, Her2-target expressing; assay: In vitro cell assay, cell viability by MTS, MDA-MB-361-DYT2; details: 96 h, read-out: Average IC50, MDA-MB-361-DYT2
Experimental: as §1

[4] = system: NB4 cells, CD33-target expressing; assay: In vitro cell assay, cell viability by MTS, NB4; details: Homo sapiens, NB-4, 96 h, read-out: Average IC50, NB4
Experimental: as §1

[5] = system: HEL92.1.7 cells, CD33-target expressing; assay: In vitro cell assay, cell viability by MTS, HEL92.1.7; details: Homo sapiens, HEL 92.1.7, 96 h, read-out: Average IC50, HEL92.1.7
Experimental: as §1

[6] = system: Raji cells, CD33-non-expressing; assay: In vitro cell assay, cell viability by MTS, Raji; details: Homo sapiens, 96 h, read-out: Average IC50, Raji
Experimental: as §1

[7] = system: HT29 cells, Her2-non-expressing; assay: In vitro cell assay, cell viability by MTS, HT29; details: Homo sapiens, HT-29, 96 h, read-out: Average IC50, HT29
Experimental: as §1

[8] = system: HL60 cells, CD33-target expressing; assay: In vitro cell assay, cell viability by MTS, HL60; details: Homo sapiens, HL-60, 96 h, read-out: Average IC50, HL-60
Experimental: as §1

## CCN[C@H]1CO[C@@H](O[C@@H]2C(O)[C@H](NO[C@H]3C[C@H](O)[C@H](SC(=O)c4c(C)c(I)c(O[C@@H]5O[C@@H](C)[C@H](O)[C@@H](OC)[C@H]5O)c(OC)c4OC)[C@@H](C)O3)[C@@H](C)O[C@H]2O[C@H]2C#C/C=C\C#C[C@]3(O)CC(=O)C(NC(=O)OC)=C2/C3=C\CSSC(C)(C)CCC(=O)NCCCC[C@H](N)C(=O)O)C[C@@H]1OC (stereo in doubt) [Example P43]
[1]
  IC50: 9.01 nM
[2]
  IC50: 1.23 nM
[3]
  IC50: 6.4 nM
[4]
  IC50: 0.516 nM
[5]
  IC50: 4.9 nM
[6]
  IC50: 2.85 nM
[7]
  IC50: 3.18 nM
[8]
  IC50: 1.36 nM

## CCN[C@H]1CO[C@@H](O[C@@H]2C(O)[C@H](NO[C@H]3C[C@H](O)[C@H](SC(=O)c4c(C)c(I)c(O[C@@H]5O[C@@H](C)[C@H](O)[C@@H](OC)[C@H]5O)c(OC)c4OC)[C@@H](C)O3)[C@@H](C)O[C@H]2O[C@H]2C#C/C=C\C#C[C@]3(O)CC(=O)C(NC(=O)OC)=C2/C3=C\CSSc2ncccc2C(=O)O)C[C@@H]1OC (stereo in doubt) [Example P46]
[1]
  IC50: 0.176 nM
[2]
  IC50: 0.544 nM
[3]
  IC50: 2.83 nM
[4]
  IC50: 0.02 nM
[5]
  IC50: 0.046 nM
[6]
  IC50: 0.039 nM
[7]
  IC50: 0.77 nM
[8]
  IC50: 0.025 nM

## CCN[C@H]1CO[C@@H](O[C@@H]2C(O)[C@H](NO[C@H]3C[C@H](O)[C@H](SC(=O)c4c(C)c(I)c(O[C@@H]5O[C@@H](C)[C@H](O)[C@@H](OC)[C@H]5O)c(OC)c4OC)[C@@H](C)O3)[C@@H](C)O[C@H]2O[C@H]2C#C/C=C\C#C[C@]3(O)CC(=O)C(NC(=O)OC)=C2/C3=C\CSS[C@H](C)CO)C[C@@H]1OC (stereo in doubt) [Example P47]
[1]
  IC50: 0.737 nM
[2]
  IC50: 1.87 nM
[3]
  IC50: 6.54 nM
[4]
  IC50: 0.04 nM
[5]
  IC50: 0.141 nM
[6]
  IC50: 0.05 nM
[7]
  IC50: 1.4 nM
[8]
  IC50: 0.054 nM

## CCN[C@H]1CO[C@@H](O[C@H]2[C@H](O[C@H]3C#C/C=C\C#C[C@]4(O)CC(=O)C(NC(=O)OC)=C3/C4=C\CSSC(C)C)O[C@H](C)[C@@H](NO[C@H]3C[C@H](O)[C@H](SC(=O)c4c(C)c(I)c(O[C@@H]5O[C@@H](C)[C@H](O)[C@@H](OC)[C@H]5O)c(OC)c4OC)[C@@H](C)O3)[C@@H]2O)C[C@@H]1OC [Example P1]
[1]
  IC50: 0.071 nM
[2]
  IC50: 0.007 nM
[3]
  IC50: 0.021 nM
[4]
  IC50: 0.003 nM
[5]
  IC50: 0.028 nM
[6]
  IC50: 0.006 nM
[7]
  IC50: 0.003 nM
[8]
  IC50: 0.003 nM

## CCN[C@H]1CO[C@@H](O[C@H]2[C@H](O[C@H]3C#C/C=C\C#C[C@]4(O)CC(=O)C(NC(=O)OC)=C3/C4=C\CSSc3ccccc3C(=O)O)O[C@H](C)[C@@H](NO[C@H]3C[C@H](O)[C@H](SC(=O)c4c(C)c(I)c(O[C@@H]5O[C@@H](C)[C@H](O)[C@@H](OC)[C@H]5O)c(OC)c4OC)[C@@H](C)O3)[C@@H]2O)C[C@@H]1OC [Example P3]
[1]
  IC50: 1.64 nM
[2]
  IC50: 0.309 nM
[3]
  IC50: 1.75 nM
[4]
  IC50: 0.081 nM
[5]
  IC50: 0.371 nM
[6]
  IC50: 0.378 nM
[7]
  IC50: 0.69 nM
[8]
  IC50: 0.149 nM

## CCN[C@H]1CO[C@@H](O[C@H]2[C@H](O[C@H]3C#C/C=C\C#C[C@]4(O)CC(=O)C(NC(=O)OC)=C3/C4=C\CSSc3ccccn3)O[C@H](C)[C@@H](NO[C@H]3C[C@H](O)[C@H](SC(=O)c4c(C)c(I)c(O[C@@H]5O[C@@H](C)[C@H](O)[C@@H](OC)[C@H]5O)c(OC)c4OC)[C@@H](C)O3)[C@@H]2O)C[C@@H]1OC [Example P4]
[1]
  IC50: 0.184 nM
[2]
  IC50: 0.086 nM
[3]
  IC50: 0.033 nM
[4]
  IC50: 0.011 nM
[5]
  IC50: 0.036 nM
[6]
  IC50: 0.056 nM
[7]
  IC50: 0.094 nM
[8]
  IC50: 0.017 nM

## CCN[C@H]1CO[C@@H](O[C@H]2[C@H](O[C@H]3C#C/C=C\C#C[C@]4(O)CC(=O)C(NC(=O)OC)=C3/C4=C\CSSC(CC(=O)O)C(=O)O)O[C@H](C)[C@@H](NO[C@H]3C[C@H](O)[C@H](SC(=O)c4c(C)c(I)c(O[C@@H]5O[C@@H](C)[C@H](O)[C@@H](OC)[C@H]5O)c(OC)c4OC)[C@@H](C)O3)[C@@H]2O)C[C@@H]1OC (stereo partly shown) [Example P6]
[1]
  IC50: 5.93 nM
[2]
  IC50: 1.24 nM
[3]
  IC50: 1.35 nM
[4]
  IC50: 0.492 nM
[6]
  IC50: 1.21 nM
[7]
  IC50: 1.14 nM
[8]
  IC50: 0.568 nM

## CCN[C@H]1CO[C@@H](O[C@H]2[C@H](O[C@H]3C#C/C=C\C#C[C@]4(O)CC(=O)C(NC(=O)OC)=C3/C4=C\CSSC(C)(C)CC(=O)NN)O[C@H](C)[C@@H](NO[C@H]3C[C@H](O)[C@H](SC(=O)c4c(C)c(I)c(O[C@@H]5O[C@@H](C)[C@H](O)[C@@H](OC)[C@H]5O)c(OC)c4OC)[C@@H](C)O3)[C@@H]2O)C[C@@H]1OC [Example P7]
[1]
  IC50: > 90 nM
[2]
  IC50: 0.046 nM
[3]
  IC50: 1.03 nM
[4]
  IC50: 0.152 nM
[5]
  IC50: 1.22 nM
[6]
  IC50: 0.161 nM
[7]
  IC50: 0.075 nM
[8]
  IC50: 0.124 nM

## CCN[C@H]1CO[C@@H](O[C@H]2[C@H](O[C@H]3C#C/C=C\C#C[C@]4(O)CC(=O)C(NC(=O)OC)=C3/C4=C\CSSc3ccccc3)O[C@H](C)[C@@H](NO[C@H]3C[C@H](O)[C@H](SC(=O)c4c(C)c(I)c(O[C@@H]5O[C@@H](C)[C@H](O)[C@@H](OC)[C@H]5O)c(OC)c4OC)[C@@H](C)O3)[C@@H]2O)C[C@@H]1OC [Example P10]
[1]
  IC50: 0.029 nM
[2]
  IC50: 0.031 nM
[3]
  IC50: 0.025 nM
[4]
  IC50: 0.003 nM
[5]
  IC50: 0.004 nM
[6]
  IC50: 0.005 nM
[7]
  IC50: 0.03 nM
[8]
  IC50: 0.004 nM

## CCN[C@H]1CO[C@@H](O[C@H]2[C@H](O[C@H]3C#C/C=C\C#C[C@]4(O)CC(=O)C(NC(=O)OC)=C3/C4=C\CSSC(C)C(=O)OCC)O[C@H](C)[C@@H](NO[C@H]3C[C@H](O)[C@H](SC(=O)c4c(C)c(I)c(O[C@@H]5O[C@@H](C)[C@H](O)[C@@H](OC)[C@H]5O)c(OC)c4OC)[C@@H](C)O3)[C@@H]2O)C[C@@H]1OC (stereo partly shown) [Example P11]
[1]
  IC50: 0.03 nM
[2]
  IC50: 0.007 nM
[3]
  IC50: 0.008 nM
[4]
  IC50: 0.001 nM
[5]
  IC50: 0.003 nM
[6]
  IC50: 0.002 nM
[7]
  IC50: 0.006 nM
[8]
  IC50: 0.002 nM

## CCN[C@H]1CO[C@@H](O[C@H]2[C@H](O[C@H]3C#C/C=C\C#C[C@]4(O)CC(=O)C(NC(=O)OC)=C3/C4=C\CSSC(C)(C)[C@H](N)C(=O)O)O[C@H](C)[C@@H](NO[C@H]3C[C@H](O)[C@H](SC(=O)c4c(C)c(I)c(O[C@@H]5O[C@@H](C)[C@H](O)[C@@H](OC)[C@H]5O)c(OC)c4OC)[C@@H](C)O3)[C@@H]2O)C[C@@H]1OC [Example P33]
[1]
  IC50: 1.09 nM
[2]
  IC50: 1.66 nM
[3]
  IC50: 1.5 nM
[6]
  IC50: 0.261 nM
[7]
  IC50: 0.386 nM
[8]
  IC50: 0.205 nM

## CCN[C@H]1CO[C@@H](O[C@H]2[C@H](O[C@H]3C#C/C=C\C#C[C@]4(O)CC(=O)C(NC(=O)OC)=C3/C4=C\CSSC(C)(C)CCNC(=O)[C@H](CCCNC(N)=O)NC(=O)[C@@H](NC(C)=O)C(C)C)O[C@H](C)[C@@H](NO[C@H]3C[C@H](O)[C@H](SC(=O)c4c(C)c(I)c(O[C@@H]5O[C@@H](C)[C@H](O)[C@@H](OC)[C@H]5O)c(OC)c4OC)[C@@H](C)O3)[C@@H]2O)C[C@@H]1OC [Example P35]
[1]
  IC50: 7.5 nM
[2]
  IC50: 14.7 nM
[3]
  IC50: 2.34 nM
[6]
  IC50: 2.1 nM
[7]
  IC50: 3.67 nM
[8]
  IC50: 2.25 nM

## CCN[C@H]1CO[C@@H](O[C@H]2[C@H](O[C@H]3C#C/C=C\C#C[C@]4(O)CC(=O)C(NC(=O)OC)=C3/C4=C\CSSC(C)(C)CNCCOc3ccccc3)O[C@H](C)[C@@H](NO[C@H]3C[C@H](O)[C@H](SC(=O)c4c(C)c(I)c(O[C@@H]5O[C@@H](C)[C@H](O)[C@@H](OC)[C@H]5O)c(OC)c4OC)[C@@H](C)O3)[C@@H]2O)C[C@@H]1OC [Example P36]
[1]
  IC50: 6.86 nM
[2]
  IC50: 6.2 nM
[3]
  IC50: 3.85 nM
[6]
  IC50: 1.13 nM
[7]
  IC50: 1.28 nM
[8]
  IC50: 0.881 nM

## CCN(C(=O)Nc1ccc(CNC(=O)OCC2c3ccccc3-c3ccccc32)cc1)[C@H]1CO[C@@H](O[C@H]2[C@H](O[C@H]3C#C/C=C\C#C[C@]4(O)CC(=O)C(NC(=O)OC)=C3/C4=C\CSSC(C)(C)C)O[C@H](C)[C@@H](NO[C@H]3C[C@H](O)[C@H](SC(=O)c4c(C)c(I)c(O[C@@H]5O[C@@H](C)[C@H](O)[C@@H](OC)[C@H]5O)c(OC)c4OC)[C@@H](C)O3)[C@@H]2O)C[C@@H]1OC [Example P49]
[1]
  IC50: 0.051 nM
[2]
  IC50: 0.007 nM
[3]
  IC50: < 0.1 nM
[6]
  IC50: 0.002 nM
[7]
  IC50: 0.006 nM
[8]
  IC50: 0.003 nM
